Experimental findings from patent US11708413B2 (priority 2016, dated 2023) are described below.

Like-named read-outs stand apart in the source and are kept apart here. Bounds are passed on as bounds.

The subject of assay [1] is BDCM (AML) cells. Put plainly: cells. In kind it is cell-based. The method, then: (§1) Cell lines tested included B-lymphoma, multiple myeloma, and leukemia cells.
(§2) Cytotoxicity effects of the free drug linkers and conjugates were measured with a cell proliferation assay. A total of 12500 cells in a volume of 25 μl were seeded in a 384-well flat bottom white polystyrene plate on the day of assay. Free drug-linkers and conjugates were formulated at 2× starting concentration (1000 nM for free drug linkers and 100 nM for ADCs) in RPMI medium and filtered through MultiScreen HTS 96-Well Filter Plates (Millipore). Filter sterilized samples were serial diluted (1:3) under sterile conditions and added into treatment wells. Plates were cultured at 37° C. in a CO2 incubator for 72 hrs. For cell viability measurement, 30 μl of Cell Titer-Glo® reagent (Promega Corp.) was added into each well, and plates processed as per product instructions. Relative luminescence was measured on an ENVISION® plate reader (Perkin-Elmer; Waltham, Mass.). Relative luminescence readings were converted to % viability using untreated cells as controls. Data was fitted with non-linear regression analysis, using log(inhibitor) vs. response, variable slope, 4 parameter fit equation using GraphPad Prism. Data was expressed as % relative cell viability vs. dose of free drug-linker or conjugate in nM.
as §1

Assay [2] deals with RPMI-6666 (HL) cells. The assay can be described thus: cells. In kind it is cell-based. The procedure:
as §1, §2, §1

The subject of assay [3] is JVM-13 (CLL) cells. The assay can be described thus: cells. In kind it is cell-based. The method, then:
as §1, §2, §1

Assay [4] has as its system SUP-B15 (ALL) cells. Put plainly: cells. The format is cell-based. The method, then: as §1, §2, §1
For assay [5], the system named is ARD (MM) cells. Put plainly: cells. In kind it is cell-based. The procedure:
as §1, §2, §1

For assay [6], the system named is K562 (CML) cells. The assay can be described thus: Cell killing assay (cell proliferation, Cell Titer-Glo), K562 (CML). In kind it is cell-based. The note with it: 72 hrs, NK = no killing. The method, then: as §1, §2
(§3) Each of Conjugates A-F was evaluated for the ability to bind and kill cells expressing CD74. […]
Background: In ATP-based viability assays light output follows the ATP content of the culture.

Assay [7] relates to SU-DHL-6 (NHL) cells. The assay can be described thus: cells. In kind it is cell-based, human. The method, then:
as §1, §2, §1

The test system of assay [8] is RPMI-8226 (MM) cells. The assay can be described thus: cells. In kind it is cell-based. The procedure:
as §1, §2
(§4) Each of Conjugates A-F was evaluated for the ability to bind and kill cells expressing CD74. Cell lines tested included B-lymphoma, multiple myeloma, and leukemia cells. Controls included unconjugated anti-CD74 antibody.

The test system of assay [9] is OPM-2 (MM) cells. Put plainly: Cell killing assay (cell proliferation, Cell Titer-Glo), OPM-2 (MM). In kind it is cell-based. The following applies: 72 hrs, NK = no killing. The procedure:
as §1, §2, §3

Assay [10] relates to ARP-1 (MM) cells. The format is cell-based, human. The method, then:
as §1, §2, §1

For assay [11], the target named is T1, CD74 on RPMI-8226 (MM) cells (Homo sapiens, UniProt P04233).
T1 construct: endogenous in cells; host or cells: RPMI-8226
T1 sequence (P04233 1-296): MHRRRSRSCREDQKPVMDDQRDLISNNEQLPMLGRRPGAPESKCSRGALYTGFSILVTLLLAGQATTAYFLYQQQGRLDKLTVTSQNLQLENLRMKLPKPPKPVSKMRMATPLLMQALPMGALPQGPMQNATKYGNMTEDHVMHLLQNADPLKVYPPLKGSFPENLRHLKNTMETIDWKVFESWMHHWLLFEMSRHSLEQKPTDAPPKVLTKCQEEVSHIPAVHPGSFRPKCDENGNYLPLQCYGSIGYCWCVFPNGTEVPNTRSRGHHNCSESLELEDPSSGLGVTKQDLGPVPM
The assay can be described thus: Cell binding assay (FACS), RPMI-8226 (MM). The note with it: NB = no binding. The method, then:
as §1
(§5) Cell lines were maintained in RPMI, high glucose (Cellgro-Mediatech; Manassas, Va.) supplemented with 20% heat-inactivated fetal bovine serum (Hyclone; Thermo Scientific; Waltham, Mass.), 2 mM glutamax (Invitrogen; Carlsbad, Calif.) and 1×Pencillin/streptomycin (Cellgro-Mediatech; Manassas, Va.). Cells were harvested and re-suspended in FACS buffer (DPBS buffer supplemented with 1% bovine serum albumin). […] Cells were washed twice with ice-cold FACS buffer and incubated with 5 ug/ml Alexa 647 labeled donkey anti-human IgG antibody (Jackson Immune-Research) on ice for another 60 mins. Unstained cells and cells stained with secondary antibody alone were used as controls. Samples were then washed twice using FACS buffer and analyzed using a BD FACS Canto system. Mean fluorescence intensities were fitted using non-linear regression analysis with one site specific binding equation on GraphPad Prism. Data was expressed as geometric mean fluorescent intensity vs. antibody concentration in nM.
as §4

In assay [12] the target is T2, CD74 on ARD (MM) cells (Homo sapiens, UniProt P04233).
T2 construct: endogenous in cells; host or cells: RPMI-6666, SU-DHL-6, ARD, ARP-1, RPMI-8226, OPM-2, BDCM, SUP-B15, JVM-13, K562
T2 sequence (P04233 1-296): T1 sequence (P04233 1-296)
The assay can be described thus: Cell binding assay (FACS), ARD (MM). The note with it: NB = no binding. The procedure:
as §1, §5, §4

The target of assay [13] is T3, CD74 on RPMI-6666 (HL) cells (Homo sapiens, UniProt P04233).
T3 construct: endogenous in cells; host or cells: RPMI-6666, SU-DHL-6, ARD, ARP-1, RPMI-8226, OPM-2, BDCM, SUP-B15, JVM-13, K562
T3 sequence (P04233 1-296): T1 sequence (P04233 1-296)
The assay can be described thus: Cell binding assay (FACS), RPMI-6666 (HL). The following applies: NB = no binding. The procedure: as §1, §5, §4

For assay [14], the target named is T4, CD74 on BDCM (AML) cells (Homo sapiens, UniProt P04233).
T4 construct: endogenous in cells; host or cells: RPMI-6666, SU-DHL-6, ARD, ARP-1, RPMI-8226, OPM-2, BDCM, SUP-B15, JVM-13, K562
T4 sequence (P04233 1-296): T1 sequence (P04233 1-296)
The assay can be described thus: Cell binding assay (FACS), BDCM (AML). The note with it: NB = no binding. The procedure:
as §1, §5, §4

Assay [15] concerns the target T5, CD74 on SU-DHL-6 (NHL) cells (Homo sapiens, UniProt P04233).
T5 construct: endogenous in cells; host or cells: SU-DHL-6
T5 sequence (P04233 1-296): T1 sequence (P04233 1-296)
The assay can be described thus: Cell binding assay (FACS), SU-DHL-6 (NHL). The note with it: NB = no binding. The method, then:
as §1, §5, §4

Assay [16] deals with T6, CD74 on SUP-B15 (ALL) cells (Homo sapiens, UniProt P04233).
T6 construct: endogenous in cells; host or cells: RPMI-6666, SU-DHL-6, ARD, ARP-1, RPMI-8226, OPM-2, BDCM, SUP-B15, JVM-13, K562
T6 sequence (P04233 1-296): T1 sequence (P04233 1-296)
Put plainly: Cell binding assay (FACS), SUP-B15 (ALL). The note with it: NB = no binding. The procedure: as §1, §5, §4

Assay [17] concerns the target T7, CD74 on ARP-1 (MM) cells (Homo sapiens, UniProt P04233).
T7 construct: endogenous in cells; host or cells: RPMI-6666, SU-DHL-6, ARD, ARP-1, RPMI-8226, OPM-2, BDCM, SUP-B15, JVM-13, K562
T7 sequence (P04233 1-296): T1 sequence (P04233 1-296)
Put plainly: Cell binding assay (FACS), ARP-1 (MM). The following applies: geometric mean fluorescent intensity, NB = no binding. The method, then:
as §1
as §5, with “Cells” for “Cell lines were maintained in RPMI, high glucose (Cellgro-Mediatech; Manassas, Va.) supplemented with 20% heat-inactivated fetal bovine serum (Hyclone; Thermo Scientific; Waltham, Mass.), 2 mM glutamax (Invitrogen; Carlsbad, Calif.) and 1×Pencillin/streptomycin (Cellgro-Mediatech; Manassas, Va.). Cells”
as §1

Assay [18] concerns the target T8, CD74 on JVM-13 (CLL) cells (Homo sapiens, UniProt P04233).
T8 construct: endogenous in cells; host or cells: RPMI-6666, SU-DHL-6, ARD, ARP-1, RPMI-8226, OPM-2, BDCM, SUP-B15, JVM-13, K562
T8 sequence (P04233 1-296): T1 sequence (P04233 1-296)
The assay can be described thus: Cell binding assay (FACS), JVM-13 (CLL). The following applies: NB = no binding. The method, then:
as §1, §5, §4

[19] abbreviates: ARD (MM) cells, 72 hrs, Cell Titer-Glo, NK = no killing.
[20] abbreviates: FACS, geometric mean fluorescent intensity.

Turning to `COc1cc2cc(c1Cl)N(C)C(=O)C[C@H](OC(=O)[C@H](C)N(C)C(=O)CCCC(=O)N(C)CCOCCOCCOCCOCCC(=O)NCCC(=O)N1Cc3ccccc3C#Cc3ccccc31)[C@]1(C)O[C@H]1[C@H](C)[C@@H]1C[C@@](O)(NC(=O)O1)[C@H](OC)/C=C/C=C(/C)C2` [Free Linker-Drug, DBCO-PEG4-maytansine, reference compound], the IC50 in assay [1] (BDCM (AML) cells, 72 hrs, Cell Titer-Glo, NK = no killing, read-out: Cell Killing Activity IC50) was 13 nM; in [2] (Homo sapiens, RPMI-6666 (HL) cells, 72 hrs, Cell Titer-Glo, NK = no killing, read-out: Cell Killing Activity IC50) it was approximately 13 nM; in assay [3] (JVM13, JVM-13 (CLL) cells, 72 hrs, Cell Titer-Glo, NK = no killing, read-out: Cell Killing Activity IC50) it was 25 nM; in [4] (Homo sapiens, SUP-B15 (ALL) cells, 72 hrs, Cell Titer-Glo, NK = no killing, read-out: Cell Killing Activity IC50), 11 nM; in assay [5] (ARD (MM) cells, 72 hrs, Cell Titer-Glo, NK = no killing, read-out: Cell Killing Activity IC50), approximately 34 nM; in assay [6] (Homo sapiens), 60 nM. In addition, the IC50 in [7] (Homo sapiens, SU-DHL-6 (NHL) cells, 72 hrs, Cell Titer-Glo, NK = no killing, read-out: Cell Killing Activity IC50) came to 15 nM; in [8] (Homo sapiens, RPMI-8226 (MM) cells, 72 hrs, Cell Titer-Glo, NK = no killing, read-out: Cell Killing Activity IC50), 18 nM; in [9] (Homo sapiens), 24 nM. Also, in assay [5] (setting [19]), the “Cell Killing Activity Span” value was determined as 40%.
Consider `COc1cc2cc(c1Cl)N(C)C(=O)C[C@H](OC(=O)[C@H](C)N(C)C(=O)CCCC(=O)N(C)CCOCCOCCOCCOCc1cn(C)nn1)[C@]1(C)O[C@H]1[C@H](C)[C@@H]1C[C@@](O)(NC(=O)O1)[C@H](OC)/C=C/C=C(/C)C2` [Conjugate B], for which the IC50 is 15 nM in assay [1] (72 h); 1.3 nM in assay [2] (72 h); 2 nM in [3] (72 h); 5.7 nM in assay [4] (72 h); 31 nM in [5] (72 h); more than 50 nM in assay [6]. Besides, the IC50 in assay [10] (72 h) is 16 nM; in [7] (72 h), 1.3 nM; in assay [8] (72 h), 51 nM; in [9] it was more than 50 nM. The “Cell Killing Activity Span” value was 95% in [1] (BDCM (AML) cells, 72 hrs, Cell Titer-Glo, NK = no killing); 89% in [2] (RPMI-6666 (HL) cells, 72 hrs, Cell Titer-Glo, NK = no killing); 69% in assay [3] (JVM-13 (CLL) cells, 72 hrs, Cell Titer-Glo, NK = no killing); 72% in assay [4] (SUP-B15 (ALL) cells, 72 hrs, Cell Titer-Glo, NK = no killing); 53% in assay [5] (setting [19]); 82% in assay [10] (ARP-1 (MM) cells, 72 hrs, Cell Titer-Glo, NK = no killing). Besides, the “Cell Killing Activity Span” value in [7] (SU-DHL-6 (NHL) cells, 72 hrs, Cell Titer-Glo, NK = no killing) came out at 98%; in assay [8] (RPMI-8226 (MM) cells, 72 hrs, Cell Titer-Glo, NK = no killing), 41%.

B1: anti-CD74 (antibody, V domains shown)
VH: QVQLVESGGGVVQPGRSLRLSCAASGFNFSDYGMHWVRQAPGKGLEWVAVIWYDGSISYYADSVKGRFTISRDNSKNTLYLQMNSLRAEDTAVYYCARGGTVEHGAVYGTDVWGQGTTVTVSS
VL: DIQMTQSPSSVSASVGDRVTITCRASQGIGSWLAWYQQKPGKAPKLLIYAADRLQSGVPSRFSGSGSGTDFTLTISSLQPEDFATYYCQQYHTYPLTFGGGTKVEIK
As to B1, the Bmax in [11] (setting [20]) is 119; in assay [12] (setting [20]), 190; in assay [13] (setting [20]) it was 3879; in assay [14] (setting [20]), 3059; in assay [15] (setting [20]), 1565; in [16] (setting [20]) it was 680. Besides, the Bmax worked out at 341 in assay [17] and 447 in [18] (setting [20]). The Kd in assay [11] (cell binding) was found to be 3.6 nM; in assay [12] (cell binding), 2.6 nM; in assay [13] (cell binding), 2.3 nM; in assay [14] (cell binding), 4.5 nM; in [15] (cell binding), 2 nM; in assay [16] (cell binding), 3.5 nM. The same molecule registered a Kd in [18] (cell binding) of 2.5 nM.

A word on the IC50: it is the point on the concentration scale where inhibition reaches its midpoint. Usually Kd stands for the equilibrium constant for the complex coming apart. A lower Kd goes with a tighter complex.
